The source made the active and inactive calls.
Key:
HEK293 = assay: EBV LMP1 TES2 canonical NF-kB signalling blockers – cell-based, HEK293, luciferase, cherry-pick, dose response (AID 588343); assay type: functional; conditions: Homo sapiens
BJ [1] = assay: BJ-TERT fibroblast viability loss – cell-based, RAS-independent, luminescence, dose response (AID 1933); assay type: functional; conditions: Homo sapiens
BJ [2] = assay: cells; assay type: functional, cell-based; conditions: Homo sapiens
BJ [3] = assay: BJ-TERT-LT-ST fibroblast viability loss – cell-based, RAS-independent, luminescence, dose response (AID 1935); assay type: functional; conditions: Homo sapiens;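 also: BJ fibroblasts immortalized with TERT plus LT and ST oncogenes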
[4] = DRD fibroblast viability loss – cell-based, non-viral oncogenic, luminescence, dose response (AID 1934); assay type: functional; conditions: Homo sapiens
BJ [5] = assay: growth inhibition of engineered Ras-driven BJ cells – cell-based, alamar blue fluorescence, cherrypicked samples, dose response (AID 2631); assay type: functional; conditions: Homo sapiens;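 also: confirmatory dose-response assay in RAS-dependent BJ fibroblasts engineered with TERT, LT and ST, with cytotoxicity read by fluorescence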
Vero = assay: cells; assay type: functional; conditions: Chlorocebus sabaeus
Caspase-3 = target: T1, Caspase-3 (Homo sapiens, UniProt P42574); assay type: functional;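 also: Dose-response selectivity test against caspase-3 for candidate inhibitors of sentrin-specific proteases (SENPs)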
T1 sequence (P42574 whole entry): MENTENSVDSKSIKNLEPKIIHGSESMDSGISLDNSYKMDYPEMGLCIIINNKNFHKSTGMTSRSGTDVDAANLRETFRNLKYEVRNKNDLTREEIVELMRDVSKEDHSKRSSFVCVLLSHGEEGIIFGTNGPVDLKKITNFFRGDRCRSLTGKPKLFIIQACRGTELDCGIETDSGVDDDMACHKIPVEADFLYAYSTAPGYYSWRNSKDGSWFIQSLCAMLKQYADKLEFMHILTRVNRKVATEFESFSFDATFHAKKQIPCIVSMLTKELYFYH

[6] = target: T2, Sentrin-specific protease 7 (Homo sapiens, UniProt Q9BQF6); assay type: functional;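 also: Luminescence-based dose-response confirmation of ultra-high-throughput screening hits, measuring inhibition of SENP7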
T2 sequence (Q9BQF6 whole entry): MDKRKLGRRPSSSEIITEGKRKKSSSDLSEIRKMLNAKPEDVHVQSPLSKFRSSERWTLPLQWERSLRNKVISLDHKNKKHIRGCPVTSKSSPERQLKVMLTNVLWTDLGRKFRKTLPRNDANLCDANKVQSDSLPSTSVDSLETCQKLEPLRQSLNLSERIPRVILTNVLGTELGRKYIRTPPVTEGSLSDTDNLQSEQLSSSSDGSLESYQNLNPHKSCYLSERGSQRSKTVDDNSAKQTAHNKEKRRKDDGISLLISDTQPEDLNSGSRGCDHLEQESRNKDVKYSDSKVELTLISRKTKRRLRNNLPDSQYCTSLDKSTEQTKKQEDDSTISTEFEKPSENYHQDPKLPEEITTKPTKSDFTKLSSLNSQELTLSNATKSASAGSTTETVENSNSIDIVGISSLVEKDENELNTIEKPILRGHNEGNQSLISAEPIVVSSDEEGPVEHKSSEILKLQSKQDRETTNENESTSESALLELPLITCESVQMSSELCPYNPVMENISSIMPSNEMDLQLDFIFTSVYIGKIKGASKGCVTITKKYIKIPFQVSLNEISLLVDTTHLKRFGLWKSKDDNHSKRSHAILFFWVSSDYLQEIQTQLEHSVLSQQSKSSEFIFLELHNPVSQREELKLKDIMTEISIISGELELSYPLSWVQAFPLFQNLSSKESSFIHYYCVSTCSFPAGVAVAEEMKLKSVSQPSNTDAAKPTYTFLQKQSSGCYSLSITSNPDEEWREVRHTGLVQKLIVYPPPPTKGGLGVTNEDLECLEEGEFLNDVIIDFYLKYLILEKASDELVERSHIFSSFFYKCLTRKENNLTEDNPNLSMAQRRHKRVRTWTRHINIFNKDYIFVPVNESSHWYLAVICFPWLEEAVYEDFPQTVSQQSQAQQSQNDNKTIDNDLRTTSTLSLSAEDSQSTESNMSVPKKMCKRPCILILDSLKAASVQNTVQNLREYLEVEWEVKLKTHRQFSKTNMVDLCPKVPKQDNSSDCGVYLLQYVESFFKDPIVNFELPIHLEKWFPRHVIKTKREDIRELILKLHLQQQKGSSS

[7] = target: T3, Sentrin-specific protease 6 (Homo sapiens, UniProt Q9GZR1); assay type: functional;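 also: Luminescence-based dose-response confirmatory assay of SENP6 inhibition, following up an ultra-high-throughput screen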
T3 sequence (Q9GZR1 whole entry): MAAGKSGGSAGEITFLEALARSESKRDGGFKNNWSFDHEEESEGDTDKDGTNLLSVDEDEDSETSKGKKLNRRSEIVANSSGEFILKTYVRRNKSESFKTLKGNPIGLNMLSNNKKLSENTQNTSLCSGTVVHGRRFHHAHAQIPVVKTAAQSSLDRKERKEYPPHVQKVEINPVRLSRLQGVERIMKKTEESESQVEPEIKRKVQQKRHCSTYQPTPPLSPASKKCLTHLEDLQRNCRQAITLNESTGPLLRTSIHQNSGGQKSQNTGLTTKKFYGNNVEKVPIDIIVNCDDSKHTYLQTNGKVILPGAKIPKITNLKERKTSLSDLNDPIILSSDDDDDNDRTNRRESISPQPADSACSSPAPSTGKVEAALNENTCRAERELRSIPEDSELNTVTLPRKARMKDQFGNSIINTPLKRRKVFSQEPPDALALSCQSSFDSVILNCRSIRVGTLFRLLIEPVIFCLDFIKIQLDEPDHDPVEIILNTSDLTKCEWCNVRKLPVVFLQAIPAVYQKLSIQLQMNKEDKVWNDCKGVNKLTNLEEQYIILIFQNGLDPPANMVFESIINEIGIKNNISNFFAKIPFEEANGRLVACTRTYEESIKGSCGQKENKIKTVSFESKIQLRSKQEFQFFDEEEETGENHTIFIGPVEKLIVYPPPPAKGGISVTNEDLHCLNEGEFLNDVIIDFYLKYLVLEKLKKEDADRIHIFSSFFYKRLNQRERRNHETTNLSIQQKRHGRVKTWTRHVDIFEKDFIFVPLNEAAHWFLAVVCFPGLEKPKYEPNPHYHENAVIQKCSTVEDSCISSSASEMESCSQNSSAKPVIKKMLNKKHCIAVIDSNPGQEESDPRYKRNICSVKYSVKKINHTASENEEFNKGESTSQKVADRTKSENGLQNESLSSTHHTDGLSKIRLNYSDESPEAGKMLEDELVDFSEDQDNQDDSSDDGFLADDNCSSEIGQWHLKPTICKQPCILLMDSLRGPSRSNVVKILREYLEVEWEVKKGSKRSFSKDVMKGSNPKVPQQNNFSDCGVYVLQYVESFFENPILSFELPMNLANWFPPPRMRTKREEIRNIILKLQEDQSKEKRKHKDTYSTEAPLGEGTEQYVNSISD

[8] = target: T4, Sentrin-specific protease 8 (Homo sapiens, UniProt Q96LD8); assay type: functional;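 also: luminescence read-out of SENP8 inhibition, dose-response confirmation following an ultra-high-throughput screen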
T4 sequence (Q96LD8 whole entry): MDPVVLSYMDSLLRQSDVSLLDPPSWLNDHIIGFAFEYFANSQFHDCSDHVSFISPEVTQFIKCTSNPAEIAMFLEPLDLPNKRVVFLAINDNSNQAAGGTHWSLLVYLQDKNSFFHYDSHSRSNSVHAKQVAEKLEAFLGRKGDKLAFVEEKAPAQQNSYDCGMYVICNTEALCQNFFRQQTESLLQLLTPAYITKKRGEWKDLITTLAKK

[9] = viability of uninfected HEp-2 cells – cell-based, HTS, cytotoxicity control for RSV inhibitor project, dose response (AID 2410); assay type: functional; conditions: human respiratory syncytial virus

SMILES	IC50 (Caspase-3)	IC50 [6]	IC50 [7]	IC50 [8]	other results
CCOCCCn1c(=S)[nH]c2ncccc2c1=O	–	–	–	–	AC50 (HEK293): 135 µM (active)
O=C(CCCN1C(=O)/C(=C/c2cccc(Br)c2)SC1=S)NCCCN1CCOCC1	–	–	–	–	EC50 (BJ [1]): 2.78 µM (inconclusive); EC50 (BJ [2]): 14.7 µM (active); EC50 (BJ [3]): > 150 µM (not active); EC50 [4]: 17.1 µM (active); EC50 (BJ [5]): > 133 µM (inactive); CC50 (Vero): > 25 µM (active)
Cc1cc(C=C2C(=O)c3ccccc3C2=O)c(C)n1C	35.2 µM (active)	24.6 µM (active)	56.1 µM (active)	74.6 µM (active)	–
O=C(c1cc(-c2ccc(Cl)cc2Cl)on1)N1CCCCCC1	17.2 µM (active)	6.51 µM (active)	18.5 µM (active)	20.5 µM (active)	CC50 [9]: 39.3 µM (active)

— ChEMBL document CHEMBL1201862, “PubChem BioAssay data set” (2004)
